Measured values reported in patent US11160886B2, “Method for labeling of sensitive and thermosensitive targeting biomolecules with technetium based compounds” (BRACCO IMAGING SPA, priority 2016, dated 2021).

Assays:
[1] = Isomeric conversion over 24 h at 37° C.; type: physicochemical
Procedure: Before the experiments for both complex 11 and complex 9, the two isomers were isolated by HPLC and their isomeric conversion was assessed over 24 h at 37° C.
In addition, a faster b vs a change was noticed. Therefore, for the radiolabeled peptide the mixture of the two isomeric forms in ratio 70/30 was directly utilized for receptor affinity studies.

[2] = molecular target: avidin (Gallus gallus, UniProt P02701); assay: Avidin binding; details: 1 and 24 h at 37° C.
Procedure: Avidin Binding. The preliminary evaluation of the binding characteristics of the two separate isomers of complex 11 to avidin was assessed according to the previously reported methods and compared with those of the corresponding already published (Bolzati, C.; Caporale, A.; Agostini, S.; Carta, D.; Cavazza-Ceccato, M.; Refosco, F.; Tisato, F.; Schievano, E.; Bandoli, G. Avidin-biotin system: a small library of cysteine biotinylated derivatives designed for the [^99mTc(N)(PNp)]^2+ metal fragment. Nucl. Med. Biol (2006), 34, 511-522).
The percentage of radiolabeled biotin bound, evaluated after 1 and 24 h of incubation along the saturation curves, is reported in FIG. 9.

[3] = Challenge reactions (transchelation) with excess Cys, GSH or EDTA, RCP by HPLC; type: physicochemical; details: 10 mM
Procedure: The transchelation studies were performed for some compounds monitoring by HPLC the radiochemical purity (RCP) of the complexes in presence of an excess of exchanging ligands over the time. The experiments were performed in triplicate.
Challenge experiments were carried out on the purified [^99mTc(N)(PNP3OH)]-labeled small size compounds (complex 1, complex 2, complex 9 and complex 10) using an excess of glutathione (GSH) or Cys. An aliquot (50 μl) of an aqueous stock solution of cysteine hydrochloride (10 mM; 1 mM) was added to a propylene test tube containing PB (250 μl, 0.2 M; pH 7.4), water (100 μl) and the selected [^99mTc(N)(PNP3OH)]-compound (100 μl). The mixture was vortexed and incubated at 37° C. for 24 h. A control reaction containing an equal volume of water, instead of cysteine hydrochloride, was studied in parallel. At 30 min, 1, 3 and 24 h, aliquots of the reaction mixture were withdrawn and analyzed by HPLC chromatography. A similar procedure was applied using GSH (50 μl, 10 mM) as challenge ligand.
For [^99mTc(N)(PNP3OH)(Cys-Gly-Lys-Gly-ApoMb)]^+ (“Cys-Gly-Lys-Gly” disclosed as SEQ ID NO: 1) additional experiments were conducted using EDTA (50 μl, 10 mM) as exchanging ligand.

Sequence of avidin (P02701 25-152, species assumed): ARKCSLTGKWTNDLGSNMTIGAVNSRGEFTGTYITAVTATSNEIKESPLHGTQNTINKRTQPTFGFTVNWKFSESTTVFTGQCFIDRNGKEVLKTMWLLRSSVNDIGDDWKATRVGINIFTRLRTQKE

In the case of “[^99mTc(N)(PNP3OH)(Biot-Abu-Cys)] [Complex 11]”, the “Isomeric conversion a vs b” value [1] is reported as “No variation of a vs b and vice versa” and the “Recognition by molecular target (avidin binding, FIG. 9)” value [2] is reported as “recognized by the corresponding molecular target”.

For “[^99mTc(N)(PNP3OH)(Cys-Gly-Lys-Gly-ApoMb)]^+”, the “Stability in challenge with excess of Cys, GSH and EDTA” value [3] was “do not affect the stability”.
